Assay results published in patent US20250074888A1, “PYRIDAZINE DERIVATIVES AS MODULATORS OF NLRP3 INFLAMMASOME AND RELATED METHODS” (Neumora Therapeutics, Inc., priority 2021, published 2025).

Tests used:
IL-6 = IL-6 release from LPS-primed, nigericin-treated THP1 macrophages, Hu IL-6 AlphaLISA; format: cell-based; conditions: Homo sapiens, THP-1; PMA-differentiated THP1, LPS 20 ng/ml 3 hrs, compound 1 hr, Nigericin 6.7 uM 3 hrs, supernatant
NLRP3 inflammasome = NLRP3 inflammasome (Homo sapiens, UniProt Q96P20); test: NLRP3 inflammasome activation in THP1 macrophages (LPS priming, nigericin), IL-1β AlphaLISA; format: cell-based; conditions: PMA-differentiated THP1, LPS 20 ng/ml 3 hrs, compound 1 hr, Nigericin 6.7 uM 3 hrs, supernatant
Sequence of NLRP3 inflammasome (Q96P20 whole entry): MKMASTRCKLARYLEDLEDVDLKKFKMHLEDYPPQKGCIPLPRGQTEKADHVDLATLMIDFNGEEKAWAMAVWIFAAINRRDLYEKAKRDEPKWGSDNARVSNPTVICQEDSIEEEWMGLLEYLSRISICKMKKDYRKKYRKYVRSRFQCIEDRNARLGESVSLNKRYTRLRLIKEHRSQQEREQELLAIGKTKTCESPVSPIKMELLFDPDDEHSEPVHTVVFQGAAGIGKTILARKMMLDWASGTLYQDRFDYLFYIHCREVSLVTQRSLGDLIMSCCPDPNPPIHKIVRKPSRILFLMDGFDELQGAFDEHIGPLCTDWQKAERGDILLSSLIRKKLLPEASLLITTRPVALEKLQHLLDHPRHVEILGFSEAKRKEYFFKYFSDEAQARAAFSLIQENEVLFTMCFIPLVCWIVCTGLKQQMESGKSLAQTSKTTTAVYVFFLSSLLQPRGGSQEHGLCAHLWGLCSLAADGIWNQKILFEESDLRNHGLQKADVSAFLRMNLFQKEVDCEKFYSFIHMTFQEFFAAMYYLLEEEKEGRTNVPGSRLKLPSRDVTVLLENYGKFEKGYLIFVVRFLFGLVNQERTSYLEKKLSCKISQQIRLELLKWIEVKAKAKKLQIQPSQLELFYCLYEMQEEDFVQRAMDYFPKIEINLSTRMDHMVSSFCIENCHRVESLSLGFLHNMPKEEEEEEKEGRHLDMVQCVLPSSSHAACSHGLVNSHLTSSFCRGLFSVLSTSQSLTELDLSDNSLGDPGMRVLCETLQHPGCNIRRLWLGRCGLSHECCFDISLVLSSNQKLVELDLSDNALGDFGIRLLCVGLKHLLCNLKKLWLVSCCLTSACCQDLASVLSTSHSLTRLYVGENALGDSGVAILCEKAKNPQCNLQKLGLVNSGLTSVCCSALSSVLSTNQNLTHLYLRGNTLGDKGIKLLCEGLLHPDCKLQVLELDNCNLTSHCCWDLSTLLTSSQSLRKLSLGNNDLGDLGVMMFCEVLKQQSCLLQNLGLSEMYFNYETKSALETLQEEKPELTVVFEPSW

SMILES | IC50 (IL-6) [nM] | IC50 (NLRP3 inflammasome) [nM]
Cc1cc(N[C@@H]2CCCN(C(C)C)C2)nnc1-c1ccc(F)cc1 [compound 135] | > 10000 | 10 to 50
Cc1cc(N[C@@H]2C[C@H](F)CN(C)C2)nnc1-c1ccc(F)cc1 [compound 139] | 5000 to 10000 | 500 to 1000
Cc1cc(N[C@@H]2C[C@@H](F)CN(C(C)C)C2)nnc1-c1ccc(C(F)(F)F)cc1 [compound 144] | 5000 to 10000 | 100 to 500
Cc1cc(N[C@@H]2CCCN(C)C2)nnc1-c1ccc(Cl)c(F)c1 [compound 145] | > 10000 | 50 to 100
CCN1C[C@H](F)C[C@@H](Nc2cc(C)c(-c3ccc(C(F)(F)F)cc3)nn2)C1 [compound 146] | 5000 to 10000 | ≤ 10
Cc1cc(-c2ccc(Cl)c(F)c2)nnc1N[C@@H]1CCCN(C)C1 [compound 147] | 5000 to 10000 | > 1000
CN1CCC[C@@H](Nc2nnc(-c3ccc(F)cc3)cc2C(F)(F)F)C1 [compound 148] | > 10000 | > 1000
CCN1C[C@H](F)C[C@@H](Nc2cc(C)c(-c3ccc(Cl)cc3)nn2)C1 [compound 151] | 1000 to 5000 | > 1000
Cc1cc(N[C@@H]2CCCN(C(C)C)C2)nnc1-c1ccc(Cl)cc1 [compound 156] | > 10000 | ≤ 10
Cc1cc(N[C@@H]2CCCN(C)C2)nnc1-c1ccc(C(F)F)cc1 [compound 157] | > 10000 | 10 to 50
Cc1cc(-c2ccccc2C(F)F)nnc1N[C@@H]1CCCN(C)C1 [compound 160] | 1000 to 5000 | 500 to 1000
Cc1cc(-c2nnc(N[C@@H]3CCCN(C)C3)cc2C)ccc1Cl [compound 162] | > 10000 | 10 to 50
Cc1cc(-c2cc(C)c(N[C@@H]3CCCN(C)C3)nn2)ccc1Cl [compound 163] | > 10000 | > 1000
COc1cc(F)cc(C)c1-c1ccc(N[C@@H]2CCCN(C)C2)nn1 [compound 164] | > 10000 | > 1000
Cc1cc(N[C@@H]2CCCN(C)C2)nnc1-c1ccc(Cl)cc1C#N [compound 168] | 5000 to 10000 | 10 to 50
Cc1cc(N[C@@H]2CCCN(C)C2)nnc1-c1ccc(Cl)cc1C(F)(F)F [compound 169] | > 10000 | 10 to 50
Cc1cc(-c2ccc(Cl)cc2C(F)(F)F)nnc1N[C@@H]1CCCN(C)C1 [compound 170] | > 10000 | 10 to 50
Cc1cc(N[C@@H]2CCCN(C)C2)nnc1-c1ccc(Cl)cc1Cl [compound 171] | > 10000 | ≤ 10
Cc1cc(N[C@@H]2CCCN(C)C2)nnc1-c1ccc(Cl)cc1C(F)F [compound 174] | 5000 to 10000 | ≤ 10

SMILES | IC50 (IL-6) [nM] | IC50 (NLRP3 inflammasome) [nM]
Cc1cc(N[C@@H]2CCCCN(C)C2)nnc1-c1ccc(C(F)(F)F)cc1 [compound 176] | > 10000 | 50 to 100
Cc1cc(O[C@@H]2CCCN(C)C2)nnc1-c1ccc(C(F)(F)F)cc1 [compound 177, (R)-4-methyl-6-((1-methylpiperidin-3-yl)oxy)-3-(4-(trifluoromethyl)phenyl)pyridazine] | > 10000 | 100 to 500
Cc1cc(-c2ccc(C(F)(F)F)cc2)nnc1O[C@@H]1CCCN(C)C1 [compound 178] | 1000 to 5000 | > 1000
Cc1cc(-c2ccc(C(F)(F)F)cc2)nnc1N[C@@H]1CCN(C)C1 [compound 182] | > 10000 | 50 to 100
Cc1cc(N(C)[C@@H]2CCN(C)C2)nnc1-c1ccc(F)cc1 [compound 184] | 5000 to 10000 | > 1000
Cc1cc(N(C)[C@@H]2CCN(C)C2)nnc1-c1ccc(C(F)(F)F)cc1 [compound 185] | 1000 to 5000 | > 1000
Cc1cc(N[C@@H]2CCN(C)C2)nnc1-c1ccc(C(F)(F)F)cc1 [compound 186] | > 10000 | ≤ 10
Cc1cc(Cl)ccc1-c1nnc(N[C@@H]2CCN(C)C2)cc1C [compound 187] | > 10000 | > 1000
Cc1cc(N[C@@H]2C[C@@H](F)CN(C(C)C)C2)nnc1-c1ccc(F)cc1 [compound 190] | > 10000 | 50 to 100
Cc1c(-c2ccc(C(F)(F)F)cc2)nnc(N[C@@H]2CCCN(C)C2)c1O [compound 191] | > 10000 | 10 to 50
CN1CCC[C@@H](Nc2cc(C(F)(F)F)c(-c3ccc(F)cc3)nn2)C1 [compound 192] | > 10000 | ≤ 10
Cc1cc(N(C2CC2)[C@@H]2CCCN(C)C2)nnc1-c1ccc(C(F)(F)F)cc1 [compound 193] | 5000 to 10000 | ≤ 10
CN1CCC[C@@H](Nc2cc(C(F)(F)F)c(-c3ccc(Cl)cc3)nn2)C1 [compound 194] | > 10000 | ≤ 10
CCN1CCC[C@@H](Nc2cc(C(F)(F)F)c(-c3ccc(F)cc3)nn2)C1 [compound 195] | > 10000 | 10 to 50
CN1CCC[C@@H](Nc2nnc(-c3ccc(Cl)cc3)cc2C(F)(F)F)C1 [compound 196] | 1000 to 5000 | 500 to 1000
CCN1CCC[C@@H](Nc2nnc(-c3ccc(F)cc3)cc2C(F)(F)F)C1 [compound 197] | > 10000 | > 1000
Cc1cc(C(F)(F)F)ccc1-c1nnc(N[C@@H]2CCCN(C)C2)cc1O [compound 198] | > 10000 | 500 to 1000
Cc1cc(Cl)ccc1-c1nnc(N[C@@H]2CCCN(C(C)C)C2)cc1C [compound 200] | > 10000 | ≤ 10

Now from value to compound:

IC50 (IL-6) [nM] | IC50 (NLRP3 inflammasome) [nM] | SMILES
5000 to 10000 | 50 to 100 | Cc1cc(N[C@H]2CN(C)CC[C@@H]2F)nnc1-c1ccc(C(F)(F)F)cc1 [compound 136]
> 10000 | 100 to 500 | Cc1cc(N[C@@H]2C[C@H](F)CN(C)C2)nnc1-c1ccc(C(F)(F)F)cc1 [compound 137]
> 10000 | > 1000 | Cc1cc(N[C@H]2CN(C)CC[C@@H]2F)nnc1-c1ccc(F)cc1 [compound 138]
> 10000 | > 1000 | Cc1cc(N[C@@H]2C[C@@H](F)CN(C)C2)nnc1-c1ccc(F)cc1 [compound 140]
> 10000 | > 1000 | Cc1cc(C(F)(F)F)c(C)cc1-c1ccc(N[C@@H]2CCCN(C)C2)nn1 [compound 141]
1000 to 5000 | 100 to 500 | Cc1cc(N(C)[C@@H]2CCCN(C)C2)nnc1-c1ccc(C(F)(F)F)cc1 [compound 142, (R)—N,5-dimethyl-N-(1-methylpiperidin-3-yl)-6-(4-(trifluoromethyl)phenyl)pyridazin-3-amine]
> 10000 | 10 to 50 | CN1CCC[C@@H](Nc2cc(F)c(-c3ccc(C(F)(F)F)cc3)nn2)C1 [compound 143]
5000 to 10000 | 100 to 500 | Cc1cc(-c2ccc(Cl)cc2F)nnc1N[C@@H]1CCCN(C)C1 [compound 149]
> 10000 | > 1000 | CCN1C[C@H](F)C[C@@H](Nc2cc(C)c(-c3ccc(F)cc3)nn2)C1 [compound 150]
> 10000 | 10 to 50 | Cc1cc(N[C@@H]2C[C@@H](F)CN(C(C)C)C2)nnc1-c1ccc(Cl)cc1 [compound 152]
5000 to 10000 | > 1000 | Cc1cc(N[C@@H]2CCCN(C)C2)nnc1-c1ccc(Cl)cc1F [compound 153]
> 10000 | 100 to 500 | Cc1cc(F)ccc1-c1cc(F)c(N[C@@H]2CCCN(C)C2)nn1 [compound 154]
> 10000 | ≤ 10 | CCN1CCC[C@@H](Nc2cc(C)c(-c3ccc(Cl)cc3)nn2)C1 [compound 155]
5000 to 10000 | 100 to 500 | Cc1cc(C(F)(F)F)ccc1-c1cc(O)c(N[C@@H]2CCCN(C)C2)nn1 [compound 158]
5000 to 10000 | 500 to 1000 | Cc1cc(N[C@@H]2CCCN(C)C2)nnc1-c1ccccc1C(F)F [compound 159]
> 10000 | 100 to 500 | Cc1c(-c2ccc(N[C@@H]3CCCN(C)C3)nn2)ccc(C(F)(F)F)c1C [compound 161]

IC50 (IL-6) [nM] | IC50 (NLRP3 inflammasome) [nM] | SMILES
> 10000 | ≤ 10 | Cc1cc(N[C@@H]2CCCN(C)C2)nnc1-c1ccc(C(F)(F)F)cc1C(F)F [compound 165]
> 10000 | 10 to 50 | Cc1cc(-c2ccc(C(F)(F)F)cc2C(F)F)nnc1N[C@@H]1CCCN(C)C1 [compound 166]
> 10000 | 100 to 500 | CCN(c1cc(C)c(-c2ccc(C(F)(F)F)cc2)nn1)[C@@H]1CCCN(C)C1 [compound 167]
> 10000 | > 1000 | COc1cc(N[C@@H]2CCCN(C)C2)nnc1-c1ccc(C(F)(F)F)cc1C [compound 172]
> 10000 | > 1000 | Cc1cc(-c2ccc(Cl)cc2C#N)nnc1N[C@@H]1CCCN(C)C1 [compound 173]
> 10000 | ≤ 10 | Cc1cc(-c2ccc(Cl)cc2C(F)F)nnc1N[C@@H]1CCCN(C)C1 [compound 175]
> 10000 | > 1000 | Cc1cc(O[C@@H]2CCCN(C)C2)nnc1-c1ccc(F)cc1 [compound 179]
> 10000 | > 1000 | Cc1cc(-c2ccc(F)cc2)nnc1O[C@@H]1CCCN(C)C1 [compound 180]
≤ 1000 | 500 to 1000 | Cc1cc(Cl)ccc1-c1nnc(O[C@@H]2CCCN(C)C2)cc1C [compound 181]
> 10000 | 100 to 500 | Cc1cc(N[C@@H]2CCN(C)C2)nnc1-c1ccc(F)cc1 [compound 183]
> 10000 | > 1000 | Cc1cccc(C(F)F)c1-c1ccc(N[C@@H]2CCCN(C)C2)nn1 [compound 189]
> 10000 | 50 to 100 | Cc1cc(C(F)F)ccc1-c1ccc(N[C@@H]2CCCN(C)C2)nn1 [compound 199]
> 10000 | ≤ 10 | CCN1CCC[C@@H](Nc2cc(C)c(-c3ccc(Cl)cc3C)nn2)C1 [compound 201]
> 10000 | 100 to 500 | Cc1cc(N(C)[C@@H]2CCCN(C)C2)nnc1-c1ccc(Cl)cc1 [compound 202]
> 10000 | 10 to 50 | Cc1cc(N[C@@H]2CCCN(C)C2)nnc1-c1ccc(F)cc1C(F)F [compound 203]
